Data as given in a compilation of properties of binary mixtures (doi:10.1039/c7cp04078d).

Assay: xn = mol fraction of the nth substance listed
Conditions: 303.15 K, 100 kPa

`CC(=O)[O-].CCCC[N+](CCCC)(CCCC)CCCC` + CC(=O)O gave a viscosity (x2 = 0) of 680 mPa·s, a viscosity (x2 = 0.1) of 460 mPa·s and a viscosity (x2 = 0.2) of 297 mPa·s. It also gave a viscosity (x2 = 0.33) of 169 mPa·s, a viscosity (x2 = 0.5) of 83 mPa·s and a viscosity (x2 = 0.67) of 41 mPa·s. For the same molecule, the viscosity (x2 = 0.8) was 25 mPa·s and the viscosity (x2 = 0.9) was 19 mPa·s.

In the case of `CC(=O)[O-].CCCC[N+](CCCC)(CCCC)CCCC` + CCCCN, the viscosity (x2 = 0) is reported as 680 mPa·s, the viscosity (x2 = 0.1) is reported as 390 mPa·s and the viscosity (x2 = 0.33) is reported as 78 mPa·s. It also gave a viscosity (x2 = 0.5) of 28 mPa·s, a viscosity (x2 = 0.67) of 16 mPa·s and a viscosity (x2 = 0.8) of 11 mPa·s. It also gave a viscosity (x2 = 0.9) of 9 mPa·s.
